Source: ChEMBL document CHEMBL5214962, “Improving lipophilicity of 5-(1-acetyl-5-phenylpyrazolidin-3-ylidene)-1,3-dimethylbarbituric acid increases its efficacy to activate hypoxia-inducible factors” (Bioorg Med Chem, 2022)
The source made the active and inactive calls. The calls are words filed in the database; no cut-off is given here.

Columns and labels:
SK-N-BE(2)-C = experiment: Activation of HIF-alpha transcriptional activity in human SK-N-BE(2)-C expressing HRE-NLuc reporter system assessed as compound concentration require for 5 fold increase in NLuc luciferase activity incubated for 24 hrs by Nano-Glo luciferase assay; format: cell-based
[1] = Cytotoxicity against human SK-N-BE(2)-C expressing HRE-NLuc reporter system assessed as reduction in cell viability incubated for 24 hrs by CCK-8 assay; format: toxicity, cell-based; conditions: SK-N-BE(2)-C cells expressing HRE-NLuc reporter system, read-out: LC50
[2] = biological target: Hypoxia-inducible factor 1-alpha (Homo sapiens) (UniProt Q16665); experiment: Induction of HIF-1alpha stabilization in human Hep3B cells assessed as HIF-1alpha level at 16 to 1000 nM incubated for 24 hrs by immunoblot analysis; format: cell-based; conditions: filed as activator, dose 16-1000 nM, DDE = dose-dependent effect
Hep3B [3] = experiment: Activation of HIF dependent pathway in human Hep3B cells assessed as increase in CA9 mRNA expression level at 10 to 100 uM incubated for 24 hrs by RT-qPCR analysis; format: cell-based; conditions: filed as activator, dose 10-100 µM
[4] = biological target: Endothelial PAS domain-containing protein 1 (Homo sapiens) (UniProt Q99814); experiment: Induction of HIF-2alpha stabilization in human Hep3B cells assessed as […] at 1 to 100 uM incubated for 24 hrs by immunoblot analysis; format: cell-based; conditions: filed as activator, dose 1-100 µM, DDE = dose-dependent effect
Hep3B [5] = experiment: Activation of HIF dependent pathway in human Hep3B cells assessed as increase in EPO mRNA expression level at 10 to 100 uM incubated for 24 hrs by RT-qPCR analysis; format: cell-based; conditions: filed as activator, dose 10-100 µM
[6] = biological target: Endothelial PAS domain-containing protein 1 (Homo sapiens) (UniProt Q99814); experiment: Induction of HIF-2alpha stabilization in human Hep3B cells assessed as […] at 16 to 1000 nM incubated for 24 hrs by immunoblot analysis; format: cell-based; conditions: filed as activator, dose 16-1000 nM, DDE = dose-dependent effect
[7] = biological target: Hypoxia-inducible factor 1-alpha (Homo sapiens) (UniProt Q16665); experiment: Induction of HIF-1alpha stabilization in human Hep3B cells assessed as HIF-1alpha level at 1 to 100 uM incubated for 24 hrs by immunoblot analysis; format: cell-based; conditions: filed as activator, dose 1-100 µM, DDE = dose-dependent effect

Endothelial PAS domain-containing protein 1 (Homo sapiens), sequence (Q99814 whole entry, the tested form may be a part): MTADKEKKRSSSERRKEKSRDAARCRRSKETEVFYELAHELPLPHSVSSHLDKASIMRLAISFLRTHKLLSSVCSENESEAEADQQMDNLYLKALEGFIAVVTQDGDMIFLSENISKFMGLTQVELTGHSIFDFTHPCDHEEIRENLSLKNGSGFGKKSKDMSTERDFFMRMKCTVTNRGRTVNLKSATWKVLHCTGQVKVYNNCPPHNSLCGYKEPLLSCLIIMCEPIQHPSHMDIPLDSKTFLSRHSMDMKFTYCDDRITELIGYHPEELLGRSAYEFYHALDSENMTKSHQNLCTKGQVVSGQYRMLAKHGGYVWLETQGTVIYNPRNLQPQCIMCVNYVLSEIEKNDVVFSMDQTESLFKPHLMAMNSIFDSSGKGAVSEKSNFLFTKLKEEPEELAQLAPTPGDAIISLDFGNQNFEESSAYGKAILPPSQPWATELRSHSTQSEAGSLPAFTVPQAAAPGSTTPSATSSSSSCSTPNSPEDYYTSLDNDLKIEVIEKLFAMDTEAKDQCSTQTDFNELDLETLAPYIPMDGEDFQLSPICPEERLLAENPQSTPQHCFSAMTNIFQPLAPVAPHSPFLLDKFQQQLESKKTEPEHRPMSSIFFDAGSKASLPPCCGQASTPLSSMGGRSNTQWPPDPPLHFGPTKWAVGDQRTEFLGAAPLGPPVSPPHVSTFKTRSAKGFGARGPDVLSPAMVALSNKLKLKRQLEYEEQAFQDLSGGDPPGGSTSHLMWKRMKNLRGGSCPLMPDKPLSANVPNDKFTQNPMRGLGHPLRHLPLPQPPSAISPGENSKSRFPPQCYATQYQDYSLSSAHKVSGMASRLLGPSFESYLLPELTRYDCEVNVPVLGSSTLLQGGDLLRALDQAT
Hypoxia-inducible factor 1-alpha (Homo sapiens), sequence (Q16665 whole entry, looked up): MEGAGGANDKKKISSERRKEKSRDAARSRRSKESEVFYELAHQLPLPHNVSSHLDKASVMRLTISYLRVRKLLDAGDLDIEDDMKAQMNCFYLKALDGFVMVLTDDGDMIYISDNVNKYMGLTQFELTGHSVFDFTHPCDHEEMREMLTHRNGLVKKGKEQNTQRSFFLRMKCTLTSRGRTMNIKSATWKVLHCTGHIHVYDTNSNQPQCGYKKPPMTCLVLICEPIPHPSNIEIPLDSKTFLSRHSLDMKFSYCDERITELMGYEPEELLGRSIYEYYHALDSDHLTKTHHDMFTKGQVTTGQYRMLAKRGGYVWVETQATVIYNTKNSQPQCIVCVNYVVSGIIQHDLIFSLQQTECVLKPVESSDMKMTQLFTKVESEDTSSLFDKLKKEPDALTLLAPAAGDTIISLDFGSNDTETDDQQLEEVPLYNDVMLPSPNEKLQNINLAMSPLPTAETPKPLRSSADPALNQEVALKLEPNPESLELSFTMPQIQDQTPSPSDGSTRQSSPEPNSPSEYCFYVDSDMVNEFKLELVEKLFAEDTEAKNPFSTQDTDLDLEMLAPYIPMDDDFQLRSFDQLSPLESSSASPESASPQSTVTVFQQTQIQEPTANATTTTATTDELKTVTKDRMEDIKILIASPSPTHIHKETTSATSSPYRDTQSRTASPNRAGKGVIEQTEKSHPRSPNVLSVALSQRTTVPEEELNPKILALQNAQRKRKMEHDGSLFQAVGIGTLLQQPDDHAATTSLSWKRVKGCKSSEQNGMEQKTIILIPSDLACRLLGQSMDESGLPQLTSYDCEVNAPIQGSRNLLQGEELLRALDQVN

SMILES	Activity (SK-N-BE(2)-C; filed as activator) [µM]	CC50 at 24 h [1] [µM]	further results
CCCCCC(=O)N1NC(=C2C(=O)N(C)C(=O)N(C)C2=O)CC1c1ccccc1 (centres undefined)	0.96	> 100	
CCCC(=O)N1NC(=C2C(=O)N(C3CCCCC3)C(=O)N(C3CCCCC3)C2=O)CC1c1ccccc1 (centres undefined)	0.441	> 100	Activity [2]: Dde; Activity (Hep3B [3]): Active; Activity [4]: Dde; Activity (Hep3B [5]): Active; Activity [6]: Dde; Activity [7]: Dde
COc1cccc(C2CC(=C3C(=O)N(C)C(=O)N(C)C3=O)NN2C(C)=O)c1Cl (centres undefined)	26.1	> 100	
CC(=O)N1NC(=C2C(=O)N(C)C(=O)N(C)C2=O)CC1c1ccc(Oc2ccccc2)cc1 (centres undefined)	6.82	> 100	
CCCC(=O)N1NC(=C2C(=O)N(C)C(=O)N(C)C2=O)CC1c1ccccc1 (centres undefined)	4.85	> 100	
COc1ccc(C2CC(=C3C(=O)N(C)C(=O)N(C)C3=O)NN2C(C)=O)cc1 (centres undefined)	19.5	> 100	
CCCCCCCCc1ccc(C2CC(=C3C(=O)N(C)C(=O)N(C)C3=O)NN2C(C)=O)cc1 (centres undefined)	12.9	> 100	
CCCCCCCCCC(=O)N1NC(=C2C(=O)N(C3CCCCC3)C(=O)N(C3CCCCC3)C2=O)CC1c1ccccc1 (centres undefined)		> 100	Activity (SK-N-BE(2)-C): > 100 µM
CC(=O)N1NC(=C2C(=O)N(C)C(=O)N(C)C2=O)CC1c1ccc(Cl)cc1 (centres undefined)	9.1	> 100	
CC(=O)N1NC(=C2C(=O)N(C)C(=O)N(C)C2=O)CC1c1ccc(F)cc1 (centres undefined)	16.5	> 100	
CCCCCC(=O)N1NC(=C2C(=O)N(C3CCCCC3)C(=O)N(C3CCCCC3)C2=O)CC1c1ccccc1 (centres undefined)	2.41	> 100	
CC(=O)N1NC(=C2C(=O)N(C)C(=O)N(C)C2=O)CC1c1ccc2ccccc2c1 (centres undefined)	7.67	> 100	
Cc1nc(C(=O)NCC(=O)O)c(O)c2ccc(Oc3ccccc3)cc12			Activity [4]: Dde; Activity [7]: Dde
CC(C)C(=O)N1NC(=C2C(=O)N(C3CCCCC3)C(=O)N(C3CCCCC3)C2=O)CC1c1ccccc1 (centres undefined)	0.364	> 100	
CC(=O)N1NC(=C2C(=O)N(C)C(=O)N(C)C2=O)CC1c1ccccc1 (centres undefined)	14.3	> 100	Activity [4]: Dde; Activity [7]: Dde
CC(=O)N1NC(=C2C(=O)N(C)C(=O)N(C)C2=O)CC1c1ccc(-c2ccccc2)cc1 (centres undefined)	3.88	> 100	
CC(=O)N1NC(=C2C(=O)N(C3CCCCC3)C(=O)N(C3CCCCC3)C2=O)CC1c1ccccc1 (centres undefined)	0.533	> 100	
CCC(=O)N1NC(=C2C(=O)N(C3CCCCC3)C(=O)N(C3CCCCC3)C2=O)CC1c1ccccc1 (centres undefined)	0.126	> 100	
CCC(=O)N1NC(=C2C(=O)N(C)C(=O)N(C)C2=O)CC1c1ccc(-c2ccccc2)cc1 (centres undefined)	3.87	> 100	
CC(C)C(=O)N1NC(=C2C(=O)N(C)C(=O)N(C)C2=O)CC1c1ccccc1 (centres undefined)	8.55	> 100	
CCCCCCCCCC(=O)N1NC(=C2C(=O)N(C)C(=O)N(C)C2=O)CC1c1ccccc1 (centres undefined)	0.153	> 100	
CC(=O)N1NC(=C2C(=O)N(C)C(=O)N(C)C2=O)CC1c1ccc(C)cc1 (centres undefined)	5.84	> 100	
CCC(=O)N1NC(=C2C(=O)N(C)C(=O)N(C)C2=O)CC1c1ccccc1 (centres undefined)	6.53	> 100	
